From patent publication US20240207455A1, “COMBINATION COMPRISING A NEUROTENSIN RECEPTOR BINDING COMPOUND AND NAPOX” (Fusion Pharmaceuticals Inc., priority 2021, published 2024) come the findings set out here.

The test system of the assay is subcutaneous AsPC1 tumors. The assay can be described thus: Efficacy study in mice bearing subcutaneous AsPC1 tumors (tumor volume). It counts as in vivo, SWISS Nude mice. The note with it: ^177Lu-IPN01087 20 MBq/mouse IV weekly x3; NAPOX: oxaliplatin 3.75 mg/kg, liposomal irinotecan 16 mg/kg, folinic acid 75 mg/kg, 5-FU 37.5 mg/kg weekly x2; Groups 2, 3, 5 vs vehicles. The method, then: The AsPC1 cell line was isolated from a metastatic site (ascites) from a patient (Chen WH. et al., In Vitro. 1982 January; 18(1):24-34).
Tumor cells were grown as monolayer at 37° C. in a humidified atmosphere (5% CO2, 95% air). The culture medium is RPMI 1640 containing glutamax supplemented with 10% heat inactivated fetal bovine serum, sodium pyruvate and hepes. For experimental use, tumor cells were detached from the culture flask using accutase and neutralized by addition of complete culture medium. The cells were counted and their viability was assessed by 0.25% trypan blue exclusion assay. Two frozen pellets of AsPC-1 tumor cells were prepared: one frozen cell pellet prepared during the in-vitro cell culture, and one frozen cell pellet prepared using the cell suspension used for tumor induction in mice.
One hundred fifty (150) healthy female SWISS Nude mice (Crl:NU(Ico)-Foxn1 nu), 6-7 weeks old at reception, were obtained from Charles River.
Tumors were induced by subcutaneous injection of ten million (10^7) AsPC-1 cells in 200 μL of RPMI 1640 medium containing matrigel (50:50, v:v, ref: 356237, BD Biosciences, France) into the right flank (in the axis of the heart) of 150 female animals. […]
The treatment efficacy was assessed in terms of the effects of the treatments on the tumor volumes of treated animals relative to control animals. […]

Take “^177Lu-zalsenertant tetraxetan [^177Lu-IPN01087]”: the “AsPC-1 tumor growth (tumor volume), FIG. 2” value is listed as “produced an antitumor effect when compared to the vehicles”.
